How the values were obtained:
[1] = molecular target: T1, JAK1 (Homo sapiens, UniProt P23458); experiment: Biochemical JAK1 kinase assay (LanthaScreen); conditions: for Ki: read-out: JAK 1 (pKi) (converted)
T1 construct: GST; purchased Life Technologies
How it was run: (§1)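 TR-FRET readout (520/495 nm) using Tb-labelled pTyr701 antibody after EDTA stop, following 1 h ATP-started phosphorylation of GFP-STAT1 by recombinant GST-JAK. Compounds preincubated 1 h with enzyme and substrate; pIC50 from 4-parameter fit, Cheng-Prusoff gives pKi.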

[2] = molecular target: T2, JAK2 (Homo sapiens, UniProt O60674); experiment: Biochemical JAK2 kinase assay (LanthaScreen); conditions: for Ki: read-out: JAK 2 (pKi) (converted)
T2 construct: GST; purchased Life Technologies
How it was run: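 GST-tagged recombinant JAK2 pre-incubated 1 h at ambient temperature with compound and GFP-STAT1 peptide in HEPES pH 7.5/MgCl2 buffer, then ATP added for a 1 h reaction with 1% DMSO. TR-FRET read after EDTA and Tb-anti-pSTAT1 (pTyr701) addition; IC50 from 4-parameter fit, converted to pKi by Cheng-Prusoff.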

[3] = molecular target: T3, Tyk2 (Homo sapiens, UniProt P29597); experiment: Biochemical Tyk2 kinase assay (LanthaScreen); conditions: for Ki: read-out: Tyk 2 (pKi) (converted)
T3 construct: GST; purchased Life Technologies
How it was run: as §1

[4] = test system: IL-2 stimulated pSTAT5 in Tall-1 T cells; experiment: Cellular JAK3 potency assay: inhibition of IL-2 stimulated pSTAT5 in Tall-1 T cells; type: cell-based, human; conditions: for Tall-1 (pIC50): IL-2 stimulated pSTAT5 in Tall-1 T cells; for IC50: Homo sapiens, TALL-1, IL-2 stimulated pSTAT5 in Tall-1 T cells, read-out: Tall-1 (pIC50) (converted)
How it was run: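 In human Tall-1 T cells, IL-2 (300 ng/ml final, 30 min) drives STAT5 phosphorylation after a 1 h compound pretreatment. Lysates are assayed for pSTAT5 by AlphaLisa, and IC50 derived from signal versus concentration is expressed as pIC50.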

[5] = molecular target: T4, JAK3 (Homo sapiens, UniProt P52333); experiment: Biochemical JAK3 kinase assay (LanthaScreen); set-up: GST; purchased Life Technologies; conditions: for JAK3 (pKi)-JAK1 (pKi): selectivity: difference of pKi JAK3 and pKi JAK1; for Ki: read-out: JAK 3 (pKi) (converted)
T4 sequence (P52333 1-1124): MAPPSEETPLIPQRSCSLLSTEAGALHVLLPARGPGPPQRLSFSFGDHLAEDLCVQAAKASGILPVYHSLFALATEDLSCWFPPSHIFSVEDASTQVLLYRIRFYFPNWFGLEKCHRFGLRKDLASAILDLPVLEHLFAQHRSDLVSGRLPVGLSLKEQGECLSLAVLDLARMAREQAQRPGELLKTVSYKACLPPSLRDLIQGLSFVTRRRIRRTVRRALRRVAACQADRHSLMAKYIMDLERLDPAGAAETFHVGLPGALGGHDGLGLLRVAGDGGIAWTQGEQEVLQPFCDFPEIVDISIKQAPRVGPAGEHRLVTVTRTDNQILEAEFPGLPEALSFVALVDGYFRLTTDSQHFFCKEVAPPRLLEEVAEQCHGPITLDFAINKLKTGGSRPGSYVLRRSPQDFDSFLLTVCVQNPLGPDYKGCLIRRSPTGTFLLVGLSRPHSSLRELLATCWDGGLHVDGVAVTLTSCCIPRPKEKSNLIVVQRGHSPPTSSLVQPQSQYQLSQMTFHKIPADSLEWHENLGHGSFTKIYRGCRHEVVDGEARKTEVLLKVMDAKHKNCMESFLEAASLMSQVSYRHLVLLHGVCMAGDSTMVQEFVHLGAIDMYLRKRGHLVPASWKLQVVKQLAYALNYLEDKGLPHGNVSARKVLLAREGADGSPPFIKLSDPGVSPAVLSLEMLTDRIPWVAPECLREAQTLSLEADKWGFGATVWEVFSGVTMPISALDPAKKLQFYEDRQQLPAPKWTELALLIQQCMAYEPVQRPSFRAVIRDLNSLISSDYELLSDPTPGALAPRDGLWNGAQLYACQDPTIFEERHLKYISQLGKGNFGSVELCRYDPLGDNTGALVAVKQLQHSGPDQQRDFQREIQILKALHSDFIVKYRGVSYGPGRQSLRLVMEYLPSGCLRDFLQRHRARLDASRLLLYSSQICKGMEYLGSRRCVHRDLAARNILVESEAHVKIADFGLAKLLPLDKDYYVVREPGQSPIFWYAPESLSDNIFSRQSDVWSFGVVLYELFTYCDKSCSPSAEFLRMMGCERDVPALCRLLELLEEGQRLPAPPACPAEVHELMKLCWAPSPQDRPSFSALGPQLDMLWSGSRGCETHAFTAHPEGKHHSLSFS
How it was run: as §1

T3 sequence (P29597 whole entry): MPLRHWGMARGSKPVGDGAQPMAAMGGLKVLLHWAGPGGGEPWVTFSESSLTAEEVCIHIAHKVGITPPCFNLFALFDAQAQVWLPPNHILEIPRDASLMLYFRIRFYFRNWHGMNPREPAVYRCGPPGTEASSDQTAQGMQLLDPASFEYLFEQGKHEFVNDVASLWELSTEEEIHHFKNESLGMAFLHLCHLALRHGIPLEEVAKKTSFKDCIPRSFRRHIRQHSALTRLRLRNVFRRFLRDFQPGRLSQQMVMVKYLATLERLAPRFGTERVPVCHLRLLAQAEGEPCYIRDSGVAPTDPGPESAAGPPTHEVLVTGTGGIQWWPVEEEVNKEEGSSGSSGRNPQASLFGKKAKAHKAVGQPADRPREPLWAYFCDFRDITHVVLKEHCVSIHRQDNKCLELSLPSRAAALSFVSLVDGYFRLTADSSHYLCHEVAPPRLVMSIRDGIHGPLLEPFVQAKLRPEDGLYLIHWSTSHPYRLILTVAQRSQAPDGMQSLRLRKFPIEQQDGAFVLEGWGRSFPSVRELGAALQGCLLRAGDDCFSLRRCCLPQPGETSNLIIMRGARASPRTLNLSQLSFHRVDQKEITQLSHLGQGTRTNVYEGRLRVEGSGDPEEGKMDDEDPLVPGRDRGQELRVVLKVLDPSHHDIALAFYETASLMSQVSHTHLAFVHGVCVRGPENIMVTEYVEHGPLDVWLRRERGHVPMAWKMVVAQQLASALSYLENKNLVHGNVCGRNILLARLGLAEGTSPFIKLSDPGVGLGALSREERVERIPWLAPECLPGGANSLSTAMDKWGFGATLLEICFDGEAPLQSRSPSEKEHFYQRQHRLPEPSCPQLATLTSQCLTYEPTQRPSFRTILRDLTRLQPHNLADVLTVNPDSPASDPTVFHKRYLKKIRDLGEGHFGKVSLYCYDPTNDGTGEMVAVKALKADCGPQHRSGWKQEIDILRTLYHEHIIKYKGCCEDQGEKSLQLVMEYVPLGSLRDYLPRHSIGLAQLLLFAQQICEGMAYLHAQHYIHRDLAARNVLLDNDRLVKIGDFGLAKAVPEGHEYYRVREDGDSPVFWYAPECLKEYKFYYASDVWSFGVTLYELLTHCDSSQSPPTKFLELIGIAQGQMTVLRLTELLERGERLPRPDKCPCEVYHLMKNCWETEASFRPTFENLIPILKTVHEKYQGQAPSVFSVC
T2 sequence (O60674 whole entry): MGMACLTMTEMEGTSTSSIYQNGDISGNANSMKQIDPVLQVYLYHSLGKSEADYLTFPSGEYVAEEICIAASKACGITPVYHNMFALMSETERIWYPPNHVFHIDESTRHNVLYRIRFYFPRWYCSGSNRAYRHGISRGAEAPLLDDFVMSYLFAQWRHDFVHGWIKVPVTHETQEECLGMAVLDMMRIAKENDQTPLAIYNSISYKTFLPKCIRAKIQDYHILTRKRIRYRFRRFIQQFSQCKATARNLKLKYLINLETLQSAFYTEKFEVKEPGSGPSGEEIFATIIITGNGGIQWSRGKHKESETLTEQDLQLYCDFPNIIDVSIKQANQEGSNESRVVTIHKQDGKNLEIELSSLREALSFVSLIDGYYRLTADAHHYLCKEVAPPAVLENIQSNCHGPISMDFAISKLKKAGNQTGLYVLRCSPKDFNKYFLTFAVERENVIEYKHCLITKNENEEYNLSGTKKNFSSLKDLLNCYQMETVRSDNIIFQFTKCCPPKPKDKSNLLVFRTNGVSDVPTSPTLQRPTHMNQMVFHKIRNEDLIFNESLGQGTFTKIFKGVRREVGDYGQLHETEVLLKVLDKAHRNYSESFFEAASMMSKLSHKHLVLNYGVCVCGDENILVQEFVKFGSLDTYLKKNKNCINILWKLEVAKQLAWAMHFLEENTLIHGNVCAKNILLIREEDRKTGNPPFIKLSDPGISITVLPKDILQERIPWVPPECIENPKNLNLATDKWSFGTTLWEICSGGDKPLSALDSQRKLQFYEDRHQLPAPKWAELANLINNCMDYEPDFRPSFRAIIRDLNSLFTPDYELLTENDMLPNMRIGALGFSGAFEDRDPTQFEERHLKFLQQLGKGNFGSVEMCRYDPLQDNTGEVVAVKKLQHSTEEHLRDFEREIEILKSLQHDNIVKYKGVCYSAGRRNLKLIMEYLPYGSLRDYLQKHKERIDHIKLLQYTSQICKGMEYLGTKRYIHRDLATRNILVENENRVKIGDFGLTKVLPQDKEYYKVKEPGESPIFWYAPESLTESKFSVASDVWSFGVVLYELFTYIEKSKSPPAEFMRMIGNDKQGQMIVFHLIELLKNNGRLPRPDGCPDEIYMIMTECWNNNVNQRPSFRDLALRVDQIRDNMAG
T1 sequence (P23458 whole entry): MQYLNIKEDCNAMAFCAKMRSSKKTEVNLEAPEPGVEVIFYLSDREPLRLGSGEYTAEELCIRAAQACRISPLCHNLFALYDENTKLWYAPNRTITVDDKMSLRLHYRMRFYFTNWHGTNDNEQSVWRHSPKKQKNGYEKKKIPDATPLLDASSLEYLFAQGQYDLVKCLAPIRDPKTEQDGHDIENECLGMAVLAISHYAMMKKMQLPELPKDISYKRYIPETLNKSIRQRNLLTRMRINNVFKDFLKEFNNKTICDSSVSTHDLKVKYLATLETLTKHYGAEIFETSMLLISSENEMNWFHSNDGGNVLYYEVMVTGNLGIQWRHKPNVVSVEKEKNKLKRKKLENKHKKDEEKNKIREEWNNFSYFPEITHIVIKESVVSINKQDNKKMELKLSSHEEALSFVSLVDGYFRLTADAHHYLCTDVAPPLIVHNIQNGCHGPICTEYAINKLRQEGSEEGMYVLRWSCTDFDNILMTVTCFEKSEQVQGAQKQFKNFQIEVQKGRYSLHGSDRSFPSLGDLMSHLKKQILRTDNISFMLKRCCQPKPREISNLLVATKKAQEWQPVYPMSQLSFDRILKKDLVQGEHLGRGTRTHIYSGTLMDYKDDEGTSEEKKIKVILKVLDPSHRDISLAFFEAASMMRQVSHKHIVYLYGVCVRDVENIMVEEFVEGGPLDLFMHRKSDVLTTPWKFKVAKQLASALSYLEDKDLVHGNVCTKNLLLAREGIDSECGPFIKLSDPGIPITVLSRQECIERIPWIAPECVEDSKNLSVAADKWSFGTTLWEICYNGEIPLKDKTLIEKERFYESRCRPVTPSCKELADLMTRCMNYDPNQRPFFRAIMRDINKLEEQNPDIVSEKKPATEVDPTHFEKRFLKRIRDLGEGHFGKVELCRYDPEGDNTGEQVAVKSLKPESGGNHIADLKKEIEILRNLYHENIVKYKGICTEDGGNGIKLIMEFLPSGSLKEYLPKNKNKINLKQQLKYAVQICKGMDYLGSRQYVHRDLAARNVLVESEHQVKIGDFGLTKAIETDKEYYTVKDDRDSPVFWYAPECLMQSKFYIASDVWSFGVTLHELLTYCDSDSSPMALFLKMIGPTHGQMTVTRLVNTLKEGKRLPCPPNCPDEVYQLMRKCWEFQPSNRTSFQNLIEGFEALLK

SMILES	JAK 1 (pKi) [1]	JAK 2 (pKi) [2]	Tyk 2 (pKi) [3]	Tall-1 (pIC50) [4]	JAK 3 (pKi) [5]	JAK3 (pKi)-JAK1 (pKi) [5]	Ki [1] [nM]	Ki [2] [nM]	Ki [3] [nM]	IC50 [4] [nM]	Ki [5] [nM]
CN(C)C/C=C/C(=O)N1CC(F)(COc2cc(-c3ccc(O)c(Cl)c3)nc3[nH]ncc23)C1 [Compound 3-52]	E (a pKi value of 7 or below (Ki of 100 nM or above))	E (a pKi value of 7 or below (Ki of 100 nM or above))	E (a pKi value of 7 or below (Ki of 100 nM or above))	B (a pIC50 value between 6.7 (included) and 7.5 (IC50 between 200 nM and 32 nM))	B (a pKi value between 9 and 10 (Ki between 1 nM and 0.1 nM))	A (a value of 3 or above)					
CN(C)C/C=C/C(=O)N1CC(F)(COc2cc(-c3ccc(O)c(F)c3)nc3[nH]ncc23)C1 [Compound 3-53]						A (a value of 3 or above)	> 100	> 100	> 100	31.6 to 200	0.1 to 1
C=CC(=O)N1CC(F)(COc2cc(-c3ccc(O)c(F)c3)nc3[nH]ncc23)C1 [Compound 3-54]	E (a pKi value of 7 or below (Ki of 100 nM or above))	E (a pKi value of 7 or below (Ki of 100 nM or above))	E (a pKi value of 7 or below (Ki of 100 nM or above))	A (a pIC50 value≥7.5 (IC50≤32 nM))	B (a pKi value between 9 and 10 (Ki between 1 nM and 0.1 nM))	A (a value of 3 or above)					
C=CC(=O)N1CC(C)(COc2nc(-c3ccc(O)cc3)cc3[nH]ncc23)C1 [Compound 3-56]						A (a value of 3 or above)	> 100	10 to 100	> 100	< 31.6	< 0.1
C=CC(=O)N1CC(C)(COc2cc(-c3ccc(O)cc3)nc3[nH]ncc23)C1 [Compound 3-58]	E (a pKi value of 7 or below (Ki of 100 nM or above))	E (a pKi value of 7 or below (Ki of 100 nM or above))	E (a pKi value of 7 or below (Ki of 100 nM or above))	B (a pIC50 value between 6.7 (included) and 7.5 (IC50 between 200 nM and 32 nM))	A (a pKi value≥10 (Ki≤0.1 nM))	A (a value of 3 or above)					
C=CC(=O)N1CC(C)(COc2nc(-c3ccc(O)c(F)c3)cc3[nH]ncc23)C1 [Compound 3-59]	E (a pKi value of 7 or below (Ki of 100 nM or above))	D (a pKi value between 7 and 8 (Ki between 100 nM and 10 nM))	E (a pKi value of 7 or below (Ki of 100 nM or above))	A (a pIC50 value≥7.5 (IC50≤32 nM))	B (a pKi value between 9 and 10 (Ki between 1 nM and 0.1 nM))	B (a value of 2.3 to 3)					
C=C(CN(C)C)C(=O)N1CC(COc2nc(-c3ccc(O)c(Cl)c3)nc3[nH]ncc23)C1 [Compound 3-60]	E (a pKi value of 7 or below (Ki of 100 nM or above))	E (a pKi value of 7 or below (Ki of 100 nM or above))	E (a pKi value of 7 or below (Ki of 100 nM or above))	B (a pIC50 value between 6.7 (included) and 7.5 (IC50 between 200 nM and 32 nM))	A (a pKi value≥10 (Ki≤0.1 nM))	A (a value of 3 or above)					
CCC1(COc2nc(-c3ccc(O)cc3)cc3[nH]ncc23)CN(C(=O)/C=C/CN(C)C)C1 [Compound 3-61]	E (a pKi value of 7 or below (Ki of 100 nM or above))	D (a pKi value between 7 and 8 (Ki between 100 nM and 10 nM))	E (a pKi value of 7 or below (Ki of 100 nM or above))	A (a pIC50 value≥7.5 (IC50≤32 nM))	A (a pKi value≥10 (Ki≤0.1 nM))	A (a value of 3 or above)					
C=CC(=O)N1CC(CC)(COc2nc(-c3ccc(O)cc3)cc3[nH]ncc23)C1 [Compound 3-62]	E (a pKi value of 7 or below (Ki of 100 nM or above))	D (a pKi value between 7 and 8 (Ki between 100 nM and 10 nM))	E (a pKi value of 7 or below (Ki of 100 nM or above))	A (a pIC50 value≥7.5 (IC50≤32 nM))	B (a pKi value between 9 and 10 (Ki between 1 nM and 0.1 nM))	A (a value of 3 or above)					
C=CC(=O)N1CC(CC)(COc2nc(-c3ccc(O)cc3)nc3[nH]ncc23)C1 [Compound 3-63]	E (a pKi value of 7 or below (Ki of 100 nM or above))	E (a pKi value of 7 or below (Ki of 100 nM or above))	E (a pKi value of 7 or below (Ki of 100 nM or above))	B (a pIC50 value between 6.7 (included) and 7.5 (IC50 between 200 nM and 32 nM))	A (a pKi value≥10 (Ki≤0.1 nM))	A (a value of 3 or above)					
C=CC(=O)N1CC(CC)(COc2nc(-c3ccc(O)c(Cl)c3)cc3[nH]ncc23)C1 [Compound 3-66]	E (a pKi value of 7 or below (Ki of 100 nM or above))	E (a pKi value of 7 or below (Ki of 100 nM or above))	E (a pKi value of 7 or below (Ki of 100 nM or above))	A (a pIC50 value≥7.5 (IC50≤32 nM))	B (a pKi value between 9 and 10 (Ki between 1 nM and 0.1 nM))	A (a value of 3 or above)					
C=CC(=O)N1CC(CC)(COc2nc(-c3ccc(O)c(F)c3)nc3[nH]ncc23)C1 [Compound 3-67]						A (a value of 3 or above)	> 100	> 100	> 100	31.6 to 200	0.1 to 1
CCC1(COc2cc(-c3ccc(O)c(Cl)c3)nc3[nH]ncc23)CN(C(=O)/C=C/CN(C)C)C1 [Compound 3-68]	D (a pKi value between 7 and 8 (Ki between 100 nM and 10 nM))	E (a pKi value of 7 or below (Ki of 100 nM or above))	E (a pKi value of 7 or below (Ki of 100 nM or above))	C (a pIC50 value between 6 and 6.7 (IC50 between 1 μM and 200 nM))	B (a pKi value between 9 and 10 (Ki between 1 nM and 0.1 nM))	B (a value of 2.3 to 3)					
C=CC(=O)N1CC(CC)(COc2cc(-c3ccc(O)c(Cl)c3)nc3[nH]ncc23)C1 [Compound 3-69]	E (a pKi value of 7 or below (Ki of 100 nM or above))	E (a pKi value of 7 or below (Ki of 100 nM or above))	E (a pKi value of 7 or below (Ki of 100 nM or above))	B (a pIC50 value between 6.7 (included) and 7.5 (IC50 between 200 nM and 32 nM))	A (a pKi value≥10 (Ki≤0.1 nM))	A (a value of 3 or above)					
C=CC(=O)N1CC(CC)(COc2cc(-c3ccc(O)c(F)c3)nc3[nH]ncc23)C1 [Compound 3-70]	E (a pKi value of 7 or below (Ki of 100 nM or above))	E (a pKi value of 7 or below (Ki of 100 nM or above))	E (a pKi value of 7 or below (Ki of 100 nM or above))	B (a pIC50 value between 6.7 (included) and 7.5 (IC50 between 200 nM and 32 nM))	A (a pKi value≥10 (Ki≤0.1 nM))	A (a value of 3 or above)					

Source: patent US10392368B2, “Pyrazolo and triazolo bicyclic compounds as JAK kinase inhibitors” (THERAVANCE BIOPHARMA R&D IP, LLC, priority 2017, dated 2019)
